IC50 data for 14 compounds are collected here from BindingDB's records for doi:10.1016/S0960-894X(96)00249-1 (1996).

What is called IC50 is the concentration at which inhibition is half-maximal.

Assay [1] can be described thus: Inhibitory activity against gastrin receptor.
Assay [2] has as its target T1, Gastrin/cholecystokinin type B receptor (Homo sapiens, UniProt P32239).
T1 sequence (P32239 whole entry): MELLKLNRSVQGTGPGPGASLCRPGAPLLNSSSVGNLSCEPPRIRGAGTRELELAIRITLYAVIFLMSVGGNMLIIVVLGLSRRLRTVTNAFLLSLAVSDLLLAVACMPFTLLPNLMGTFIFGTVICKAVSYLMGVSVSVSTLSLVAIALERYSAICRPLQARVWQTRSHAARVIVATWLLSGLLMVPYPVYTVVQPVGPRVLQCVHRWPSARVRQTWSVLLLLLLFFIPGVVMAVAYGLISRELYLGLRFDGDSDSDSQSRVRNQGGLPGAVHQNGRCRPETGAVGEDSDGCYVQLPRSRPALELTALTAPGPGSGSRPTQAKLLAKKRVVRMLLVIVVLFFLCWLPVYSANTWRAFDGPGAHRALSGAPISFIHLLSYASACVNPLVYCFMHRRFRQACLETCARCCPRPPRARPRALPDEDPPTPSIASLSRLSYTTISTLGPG
The assay can be described thus: ChEBML_71518.

`CN1C(=O)[C@H](NC(=O)Nc2cccc(COC(=O)NCCCN3CCN(C(=O)CNCCCOc4cccc(CN5CCCCC5)c4)CC3)c2)N=C(c2ccccc2)c2ccccc21` [[3-(4-{2-[3-(3-Piperidin-1-ylmethyl-phenoxy)-propylamino]-acetyl}-piperazin-1-yl)-propyl]-carbamic acid 3-[3-((R)-1-methyl-2-oxo-5-phenyl-2,3-dihydro-1H-benzo[e][1,4]diazepin-3-yl)-ureido]-benzyl ester] returned a half-maximal inhibitory concentration (IC50) in assay [1] of 9 nM. Same read-out and setting: to `CN1C(=O)[C@H](NC(=O)Nc2cccc(COC(=O)NCC(=O)NCCCOc3cccc(CN4CCCCC4)c3)c2)N=C(c2ccccc2)c2ccccc21` [{[3-(3-Piperidin-1-ylmethyl-phenoxy)-propylcarbamoyl]-methyl}-carbamic acid 3-[3-((R)-1-methyl-2-oxo-5-phenyl-2,3-dihydro-1H-benzo[e][1,4]diazepin-3-yl)-ureido]-benzyl ester] belongs 11 nM; to `CN1C(=O)[C@H](NC(=O)Nc2cccc(CCOC(=O)NCCCNCCSCc3csc(CC(=N)N)n3)c2)N=C(c2ccccc2)c2ccccc21` [(3-{2-[2-(2,2-Diamino-vinyl)-thiazol-4-ylmethylsulfanyl]-ethylamino}-propyl)-carbamic acid 2-{3-[3-((R)-1-methyl-2-oxo-5-phenyl-2,3-dihydro-1H-benzo[e][1,4]diazepin-3-yl)-ureido]-phenyl}-ethyl ester], 37 nM; to `Cc1cccc(NC(=O)N[C@@H]2N=C(c3cccc(OC(=O)NCCCC(=O)NCCCOc4cccc(CN5CCCCC5)c4)c3)c3ccccc3N(C)C2=O)c1` [{3-[3-(3-Piperidin-1-ylmethyl-phenoxy)-propylcarbamoyl]-propyl}-carbamic acid 3-[(R)-1-methyl-2-oxo-3-(3-m-tolyl-ureido)-2,3-dihydro-1H-benzo[e][1,4]diazepin-5-yl]-phenyl ester], 220 nM.

For `Cc1cccc(NC(=O)N[C@@H]2N=C(c3ccccc3)c3ccccc3N(CCOC(=O)NCCCC(=O)NCCSCc3csc(CC(=N)N)n3)C2=O)c1` [(3-{2-[2-(2,2-Diamino-vinyl)-thiazol-4-ylmethylsulfanyl]-ethylcarbamoyl}-propyl)-carbamic acid 2-[(R)-2-oxo-5-phenyl-3-(3-m-tolyl-ureido)-2,3-dihydro-benzo[e][1,4]diazepin-1-yl]-ethyl ester], the IC50 in assay [1] was 17 nM.

`CN1C(=O)[C@H](NC(=O)Nc2cccc(CCOC(=O)NCCC(=O)NCCCOc3cccc(CN4CCCCC4)c3)c2)N=C(c2ccccc2)c2ccccc21` [{2-[3-(3-Piperidin-1-ylmethyl-phenoxy)-propylcarbamoyl]-ethyl}-carbamic acid 2-{3-[3-((R)-1-methyl-2-oxo-5-phenyl-2,3-dihydro-1H-benzo[e][1,4]diazepin-3-yl)-ureido]-phenyl}-ethyl ester] returned an IC50 in assay [1] of 27 nM. `Cc1cccc(NC(=O)N[C@@H]2N=C(c3cccc(OC(=O)NCCCC(=O)NCCSCc4csc(CC(=N)N)n4)c3)c3ccccc3N(C)C2=O)c1` [(3-{2-[2-(2,2-Diamino-vinyl)-thiazol-4-ylmethylsulfanyl]-ethylcarbamoyl}-propyl)-carbamic acid 3-[(R)-1-methyl-2-oxo-3-(3-m-tolyl-ureido)-2,3-dihydro-1H-benzo[e][1,4]diazepin-5-yl]-phenyl ester]: the concentration for half-maximal inhibition (IC50) in assay [1] is greater than 1000 nM. `CN1C(=O)[C@H](NC(=O)Nc2cccc(COC(=O)NCCC(=O)NCCCOc3cccc(CN4CCCCC4)c3)c2)N=C(c2ccccc2)c2ccccc21` [{2-[3-(3-Piperidin-1-ylmethyl-phenoxy)-propylcarbamoyl]-ethyl}-carbamic acid 3-[3-((R)-1-methyl-2-oxo-5-phenyl-2,3-dihydro-1H-benzo[e][1,4]diazepin-3-yl)-ureido]-benzyl ester]: it took 36 nM to reach half-maximal inhibition in assay [1] (IC50). For `CN1C(=O)[C@H](NC(=O)Nc2cccc(COC(=O)NCCNC(=O)CC(=O)NCCCOc3cccc(CN4CCCCC4)c3)c2)N=C(c2ccccc2)c2ccccc21` [(2-{2-[3-(3-Piperidin-1-ylmethyl-phenoxy)-propylcarbamoyl]-acetylamino}-ethyl)-carbamic acid 3-[3-((R)-1-methyl-2-oxo-5-phenyl-2,3-dihydro-1H-benzo[e][1,4]diazepin-3-yl)-ureido]-benzyl ester], in assay [1], the IC50 amounted to 19 nM. Same read-out and setting: to `CN1C(=O)[C@H](NC(=O)Nc2cccc(COC(=O)NCCN3CCN(C(=O)CNCCCOc4cccc(CN5CCCCC5)c4)CC3)c2)N=C(c2ccccc2)c2ccccc21` [[2-(4-{2-[3-(3-Piperidin-1-ylmethyl-phenoxy)-propylamino]-acetyl}-piperazin-1-yl)-ethyl]-carbamic acid 3-[3-((R)-1-methyl-2-oxo-5-phenyl-2,3-dihydro-1H-benzo[e][1,4]diazepin-3-yl)-ureido]-benzyl ester] belongs 7 nM. With `CN1C(=O)[C@H](NC(=O)Nc2cccc(COC(=O)NCNC(=O)CC(=O)NCCSCc3csc(CC(=N)N)n3)c2)N=C(c2ccccc2)c2ccccc21` [[(2-{2-[2-(2,2-Diamino-vinyl)-thiazol-4-ylmethylsulfanyl]-ethylcarbamoyl}-acetylamino)-methyl]-carbamic acid 3-[3-((R)-1-methyl-2-oxo-5-phenyl-2,3-dihydro-1H-benzo[e][1,4]diazepin-3-yl)-ureido]-benzyl ester], the IC50 in assay [2] was found to be 4 nM. In assay [1], `CN1C(=O)[C@H](NC(=O)Nc2cccc(COC(=O)NCCCC(=O)NCCCOc3cccc(CN4CCCCC4)c3)c2)N=C(c2ccccc2)c2ccccc21` [{3-[3-(3-Piperidin-1-ylmethyl-phenoxy)-propylcarbamoyl]-propyl}-carbamic acid 3-[3-((R)-1-methyl-2-oxo-5-phenyl-2,3-dihydro-1H-benzo[e][1,4]diazepin-3-yl)-ureido]-benzyl ester] had an IC50 of 26 nM. In assay [1], `Cc1cccc(NC(=O)N[C@@H]2N=C(c3ccccc3)c3ccccc3N(CCOC(=O)NCCCC(=O)NCCCOc3cccc(CN4CCCCC4)c3)C2=O)c1` [{3-[3-(3-Piperidin-1-ylmethyl-phenoxy)-propylcarbamoyl]-propyl}-carbamic acid 2-[(R)-2-oxo-5-phenyl-3-(3-m-tolyl-ureido)-2,3-dihydro-benzo[e][1,4]diazepin-1-yl]-ethyl ester] showed an IC50 of 135 nM. Still for that read-out and setting: for `CN1C(=O)[C@H](NC(=O)Nc2cccc(CCOC(=O)NCCCC(=O)NCCCOc3cccc(CN4CCCCC4)c3)c2)N=C(c2ccccc2)c2ccccc21` [{3-[3-(3-Piperidin-1-ylmethyl-phenoxy)-propylcarbamoyl]-propyl}-carbamic acid 2-{3-[3-((R)-1-methyl-2-oxo-5-phenyl-2,3-dihydro-1H-benzo[e][1,4]diazepin-3-yl)-ureido]-phenyl}-ethyl ester] the value was 23 nM.
